Measurements published in BigSolDB 2.1.

Nc1cccc2cccc(N)c12
solubility (mole fraction)
Settings | 273.15 K | 278.15 K | 283.15 K | 288.15 K | 293.15 K | 298.15 K | 303.15 K | 308.15 K | 313.15 K
in acetonitrile | 0.0518 | 0.065 | 0.0798 | 0.0966 | 0.116 | 0.139 | 0.166 | 0.197 | 0.231
in ethyl acetate | 0.0765 | 0.091 | 0.107 | 0.127 | 0.152 | 0.179 | 0.212 | 0.252 | 0.295
in isopropanol | 0.0221 | 0.0277 | 0.0338 | 0.0407 | 0.0491 | 0.0588 | 0.0688 | 0.0807 | 0.0936
in methanol | 0.018 | 0.0219 | 0.0267 | 0.0327 | 0.0391 | 0.0467 | 0.0551 | 0.0647 | 0.0754
in n-propanol | 0.0385 | 0.0484 | 0.0594 | 0.0718 | 0.0868 | 0.103 | 0.121 | 0.142 | 0.166
in toluene | 0.0423 | 0.0512 | 0.0654 | 0.0803 | 0.0966 | 0.117 | 0.138 | 0.163 | 0.189

Nc1cccc2c(N)cccc12
solubility (mole fraction)
Settings | 273.15 K | 278.15 K | 283.15 K | 288.15 K | 293.15 K | 298.15 K | 303.15 K | 308.15 K | 313.15 K
in acetonitrile | 0.00186 | 0.00238 | 0.00305 | 0.00382 | 0.00477 | 0.00577 | 0.00695 | 0.00834 | 0.00983
in ethyl acetate | 0.00404 | 0.00487 | 0.00569 | 0.00662 | 0.00759 | 0.00869 | 0.00992 | 0.0113 | 0.0128
in isopropanol | 0.000471 | 0.000564 | 0.000684 | 0.000807 | 0.000947 | 0.0011 | 0.00126 | 0.00144 | 0.00163
in methanol | 0.00112 | 0.00132 | 0.00154 | 0.00181 | 0.00209 | 0.0024 | 0.00278 | 0.0032 | 0.00369
in n-propanol | 0.00064 | 0.000762 | 0.000895 | 0.00105 | 0.00122 | 0.00142 | 0.00165 | 0.00192 | 0.00224
in toluene | 0.000262 | 0.000345 | 0.000445 | 0.00056 | 0.000689 | 0.00084 | 0.00102 | 0.0012 | 0.0014
